Experimental data taken from patent publication US20260091020A1, “TREATMENT OF ACUTE CANNABINOID OVERDOSE” (Anebulo Pharmaceuticals, Inc., priority 2022, published 2026).

Tested on: central nervous system effects of THC
Test: Phase 2 randomized, double-blind, placebo-controlled THC challenge study, PD endpoints (10.5 mg THC + 50 or 100 mg Compound 1)
Assay type: in vivo, human
Conditions: 10.5 mg THC alone (THC/placebo); score of at least 20/100 on VAS feeling high scale

SMILES: CCCCCc1cc(O)c2c(c1)OC(C)(C)[C@@H]1CCC(C)=C[C@@H]21 [THC, Δ9-tetrahydrocannabinol]
- Proportion of subjects reporting feeling high: 75%
